From patent US8637528B2, “Use of PDE7 inhibitors for the treatment of movement disorders” (Omeros Corporation, priority 2007, dated 2014)
Entries after “also recorded” stand apart in the source; their conditions may differ.

Legend:
MPTP-treated mice = test: inked paw stride length in the MPTP mouse model of Parkinson's disease, panel of PDE7 inhibitors (Example 7); type: in vivo
Experimental: Adult male C57BL/6J; retired breeders, aged between 7-9 months Charles River Laboratories, Wilmington, Mass.), singly housed. Three groups of 35 mice were tested in series one week apart.
Mice received 2 subcutaneous injections of methylphenyltetrahydropyridine (“MPTP”) at a dose of 15 mg/kg (free base) with a 10-12 hour interval between injections. Control mice (sham lesion groups) were administered saline instead of MPTP.
Prior to injection with MPTP or saline, animals were pre-trained to walk across a clean sheet of paper into their home cage without stopping. For assessment of stride length, animals had their forepaws placed in black ink and the length of forepaw steps during normal walking (in a straight line only) was measured. The animals were immediately put back into their home cage upon completion of the task. Stride length was determined by measuring the distance between each step on the same side of the body, measuring from the middle toe of the first step to the heel of the second step. An average of at least four clear steps was calculated. The schedule for this experiment was as follows:
Because of the wide variation in aqueous solubility among these compounds, a number of different formulations were required. L-dopa was administered in 100 μl of phosphate buffered saline. For animals treated with L-dopa, the dopa decarboxylase inhibitor benserazide (100 μL of a 12.5 mg/kg solution) was administered 15 minutes prior to treatment with L-dopa in order to minimize the destruction of L-dopa in the peripheral blood. […] Therefore, the treatment effects observed are due solely to the PDE7 inhibitory compounds themselves. […] This phenomenon of “overshoot” has also been observed with L-dopa in MPTP-treated mice in which lower doses ameliorate hypoactivity while higher doses induce dyskinesias or uncontrolled movements (Lundblad M. et al., Exp Neurol.194(1):66-75 (2005); Pearce R. K. et al., Mov Disord. 10(6):731-40 (1995); Fredriksson, A. et al, Pharmacol-Toxicol. 67(4): 295-301 (1990)).
Retired breeder male mice were treated with either saline or 2×15 mg/kg MPTP to induce a Parkinsonian state (neurochemical loss of dopamine with corresponding behavioral deficits). On day one baseline stride length was measured and then mice were treated with either MPTP or with saline as a control. On day eight stride length was measured again, and the control value for stride length was derived from the stride length of saline-treated animals. The animals were then divided randomly into treatment groups. Compound OM955 (compound 3) was tested at 0.1 mg/kg, at 0.5 mg/kg, and at 0.1 mg/kg in combination with 1 mg/kg L-dopa.

PDE9A = PDE9A (Homo sapiens (Human), UniProt O76083); test: PDE selectivity SPA assay, PDE9A; type: biochemical; conditions: IC50 against PDE9A divided by IC50 against PDE7A
PDE3A = PDE3A (Homo sapiens (Human), UniProt Q14432); test: PDE selectivity SPA assay, PDE3A; type: biochemical; conditions: IC50 against PDE3A divided by IC50 against PDE7A
PDE2A = PDE2A (Homo sapiens (Human), UniProt O00408); test: PDE selectivity SPA assay, PDE2A; type: biochemical; conditions: IC50 against PDE2A divided by IC50 against PDE7A
Experimental: (§1) Phosphodiesterase activity was measured by a scintillation proximity assay (SPA, GE Healthcare: Product Code TRKQ7100) with [^3H]-cAMP as the substrate for PDEs 3A, 4A, 8A, or with [^3H]-cGMP as the substrate for PDEs 1B, 2A, 5A, 9A, 10A and 11A. Purified human PDE1B, PDE2A, PDE3A, PDE4A, PDE5A, PDE8A, PDE9A and PDE11A4 were obtained from BPS Bioscience, San Diego, Calif. Purified murine PDE10A was also obtained from BPS Biosciences. […] Therefore, the results obtained using murine PDE10A are believed to be representative of human PDE10.
(§2) The purified PDE enzymes were each diluted and stored in a solution containing 25 mM Tris-Cl (pH 8.0), 100 mM NaCl, 0.05% Tween 20, 50% glycerol, and 3 mM DTT. PDE assays were carried out in the following assay cocktail (final concentrations): 50 mM Tris-Cl (pH 8.0), 8.3 mM MgCl2, 1.7 mM EGTA, 0.5 mg/ml BSA, 2.5% DMSO and between 0.2 ng and 6 ng of the PDE protein (depending on the enzyme activity) in a final volume of 0.1 mL.
(§3) Reactions were initiated by addition of enzyme, incubated for 20 minutes at 30° C. and then terminated by the addition of 50 μl of SPA beads containing Zn^2+.
(§4) The mixture was shaken, and allowed to settle for 3 hours. Then the production of [^3H]-AMP or [^3H]-GMP from the substrate was quantitated by scintillation counting in a Wallac® plate counter. […]

PDE4A = PDE4A (Homo sapiens (Human), UniProt P27815); test: PDE selectivity SPA assay, PDE4A; type: biochemical; conditions: IC50 against PDE4A divided by IC50 against PDE7A
Experimental: as §1, §2, §3, §4

PDE5A = PDE5A (Homo sapiens (Human), UniProt O76074); test: PDE selectivity SPA assay, PDE5A; type: biochemical; conditions: IC50 against PDE5A divided by IC50 against PDE7A
Experimental: as §1, §2, §3, §4

PDE10A = PDE10A (Mus musculus (Mouse), UniProt Q8CA95); test: PDE selectivity SPA assay, PDE10A; type: biochemical; conditions: IC50 against murine PDE10A divided by IC50 against PDE7A
Experimental: as §1, §2, §3, §4

PDE3A, sequence (Q14432 whole entry): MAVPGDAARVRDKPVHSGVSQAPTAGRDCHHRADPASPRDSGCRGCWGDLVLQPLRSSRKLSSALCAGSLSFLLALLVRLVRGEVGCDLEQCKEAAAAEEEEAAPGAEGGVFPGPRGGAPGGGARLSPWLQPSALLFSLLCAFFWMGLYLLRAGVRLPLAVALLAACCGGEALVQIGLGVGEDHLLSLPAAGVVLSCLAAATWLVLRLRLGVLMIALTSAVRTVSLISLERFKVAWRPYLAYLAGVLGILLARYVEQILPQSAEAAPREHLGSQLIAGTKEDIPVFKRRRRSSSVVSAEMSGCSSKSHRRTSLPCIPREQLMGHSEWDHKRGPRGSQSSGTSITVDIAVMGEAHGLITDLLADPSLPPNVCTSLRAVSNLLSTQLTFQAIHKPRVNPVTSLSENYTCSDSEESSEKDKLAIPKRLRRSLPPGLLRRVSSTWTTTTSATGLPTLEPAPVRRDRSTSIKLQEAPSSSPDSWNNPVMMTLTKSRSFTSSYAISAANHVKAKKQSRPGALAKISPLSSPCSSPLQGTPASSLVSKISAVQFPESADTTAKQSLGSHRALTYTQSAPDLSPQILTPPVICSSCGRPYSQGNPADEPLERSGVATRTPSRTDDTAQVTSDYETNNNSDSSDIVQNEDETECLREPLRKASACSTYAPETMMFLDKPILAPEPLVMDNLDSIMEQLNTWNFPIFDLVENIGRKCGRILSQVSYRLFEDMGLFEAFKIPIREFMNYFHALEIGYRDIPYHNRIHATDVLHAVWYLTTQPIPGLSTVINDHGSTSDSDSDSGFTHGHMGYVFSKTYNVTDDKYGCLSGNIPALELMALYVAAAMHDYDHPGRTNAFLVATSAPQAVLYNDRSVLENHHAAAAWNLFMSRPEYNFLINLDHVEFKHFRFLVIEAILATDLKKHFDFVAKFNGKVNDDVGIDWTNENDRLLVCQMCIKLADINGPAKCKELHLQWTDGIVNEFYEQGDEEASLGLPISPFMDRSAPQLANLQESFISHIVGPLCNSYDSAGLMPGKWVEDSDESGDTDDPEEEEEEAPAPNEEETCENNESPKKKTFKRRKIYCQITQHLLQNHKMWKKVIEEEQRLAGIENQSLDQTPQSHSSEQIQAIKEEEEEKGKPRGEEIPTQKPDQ
PDE10A, sequence (Q8CA95 whole entry): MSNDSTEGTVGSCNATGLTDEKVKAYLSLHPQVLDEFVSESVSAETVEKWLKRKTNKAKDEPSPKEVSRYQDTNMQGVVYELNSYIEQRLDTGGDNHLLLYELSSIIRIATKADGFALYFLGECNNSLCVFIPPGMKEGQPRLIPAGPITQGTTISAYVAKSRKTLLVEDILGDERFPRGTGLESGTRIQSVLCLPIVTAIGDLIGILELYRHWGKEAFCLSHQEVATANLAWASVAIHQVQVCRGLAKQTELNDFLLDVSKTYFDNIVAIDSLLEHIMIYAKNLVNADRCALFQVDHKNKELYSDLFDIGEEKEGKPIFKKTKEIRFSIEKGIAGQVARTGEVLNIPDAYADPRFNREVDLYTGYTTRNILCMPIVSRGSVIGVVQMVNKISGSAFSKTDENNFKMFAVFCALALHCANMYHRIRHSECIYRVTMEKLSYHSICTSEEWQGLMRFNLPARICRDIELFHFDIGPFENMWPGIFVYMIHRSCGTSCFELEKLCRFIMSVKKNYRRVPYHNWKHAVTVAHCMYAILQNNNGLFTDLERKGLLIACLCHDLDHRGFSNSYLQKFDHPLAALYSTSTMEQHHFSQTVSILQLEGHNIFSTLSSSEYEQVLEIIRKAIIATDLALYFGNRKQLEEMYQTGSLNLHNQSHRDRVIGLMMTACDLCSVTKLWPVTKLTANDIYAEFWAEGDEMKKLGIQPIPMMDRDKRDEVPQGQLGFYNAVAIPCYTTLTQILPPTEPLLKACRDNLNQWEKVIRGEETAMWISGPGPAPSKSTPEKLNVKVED
PDE9A, sequence (O76083 whole entry): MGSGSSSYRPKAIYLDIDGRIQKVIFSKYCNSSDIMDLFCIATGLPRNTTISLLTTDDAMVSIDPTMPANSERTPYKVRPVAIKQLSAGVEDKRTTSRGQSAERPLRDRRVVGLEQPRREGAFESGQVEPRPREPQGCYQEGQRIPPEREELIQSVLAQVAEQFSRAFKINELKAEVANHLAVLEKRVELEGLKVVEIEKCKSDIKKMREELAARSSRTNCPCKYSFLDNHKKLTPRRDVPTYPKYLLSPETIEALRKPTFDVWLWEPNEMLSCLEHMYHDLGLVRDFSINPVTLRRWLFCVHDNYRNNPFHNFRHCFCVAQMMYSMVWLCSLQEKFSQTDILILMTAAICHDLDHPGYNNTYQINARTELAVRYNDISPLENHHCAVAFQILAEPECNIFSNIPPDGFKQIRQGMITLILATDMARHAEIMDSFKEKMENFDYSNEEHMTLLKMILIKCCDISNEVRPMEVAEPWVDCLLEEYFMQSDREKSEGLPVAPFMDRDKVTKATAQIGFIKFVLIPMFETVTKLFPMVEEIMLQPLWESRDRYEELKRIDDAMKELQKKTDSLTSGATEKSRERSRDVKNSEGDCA
PDE2A, sequence (O00408 whole entry): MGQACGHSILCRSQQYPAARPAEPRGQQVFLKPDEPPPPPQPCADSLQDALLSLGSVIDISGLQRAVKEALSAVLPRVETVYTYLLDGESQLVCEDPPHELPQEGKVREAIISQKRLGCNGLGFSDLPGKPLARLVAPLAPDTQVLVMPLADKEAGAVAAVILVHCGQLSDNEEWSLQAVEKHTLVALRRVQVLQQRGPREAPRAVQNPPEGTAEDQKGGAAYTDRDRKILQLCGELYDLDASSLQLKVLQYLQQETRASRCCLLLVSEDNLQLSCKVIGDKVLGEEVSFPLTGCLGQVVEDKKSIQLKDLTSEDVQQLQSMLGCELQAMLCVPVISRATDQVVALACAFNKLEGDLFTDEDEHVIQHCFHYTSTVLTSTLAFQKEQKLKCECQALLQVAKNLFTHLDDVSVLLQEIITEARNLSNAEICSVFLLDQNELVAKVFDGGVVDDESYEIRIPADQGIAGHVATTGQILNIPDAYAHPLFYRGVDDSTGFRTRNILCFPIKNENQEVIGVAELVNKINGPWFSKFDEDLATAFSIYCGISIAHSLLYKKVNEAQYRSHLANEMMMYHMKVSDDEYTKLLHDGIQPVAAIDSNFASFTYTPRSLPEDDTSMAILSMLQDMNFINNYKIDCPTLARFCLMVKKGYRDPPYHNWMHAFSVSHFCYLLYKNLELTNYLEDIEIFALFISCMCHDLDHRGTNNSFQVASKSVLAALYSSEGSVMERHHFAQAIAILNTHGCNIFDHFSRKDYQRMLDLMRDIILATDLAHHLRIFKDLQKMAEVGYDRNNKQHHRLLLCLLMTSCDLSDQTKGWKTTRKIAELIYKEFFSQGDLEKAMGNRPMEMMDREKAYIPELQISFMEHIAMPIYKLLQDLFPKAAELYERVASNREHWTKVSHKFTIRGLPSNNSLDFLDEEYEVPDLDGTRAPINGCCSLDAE
PDE4A, sequence (P27815 whole entry): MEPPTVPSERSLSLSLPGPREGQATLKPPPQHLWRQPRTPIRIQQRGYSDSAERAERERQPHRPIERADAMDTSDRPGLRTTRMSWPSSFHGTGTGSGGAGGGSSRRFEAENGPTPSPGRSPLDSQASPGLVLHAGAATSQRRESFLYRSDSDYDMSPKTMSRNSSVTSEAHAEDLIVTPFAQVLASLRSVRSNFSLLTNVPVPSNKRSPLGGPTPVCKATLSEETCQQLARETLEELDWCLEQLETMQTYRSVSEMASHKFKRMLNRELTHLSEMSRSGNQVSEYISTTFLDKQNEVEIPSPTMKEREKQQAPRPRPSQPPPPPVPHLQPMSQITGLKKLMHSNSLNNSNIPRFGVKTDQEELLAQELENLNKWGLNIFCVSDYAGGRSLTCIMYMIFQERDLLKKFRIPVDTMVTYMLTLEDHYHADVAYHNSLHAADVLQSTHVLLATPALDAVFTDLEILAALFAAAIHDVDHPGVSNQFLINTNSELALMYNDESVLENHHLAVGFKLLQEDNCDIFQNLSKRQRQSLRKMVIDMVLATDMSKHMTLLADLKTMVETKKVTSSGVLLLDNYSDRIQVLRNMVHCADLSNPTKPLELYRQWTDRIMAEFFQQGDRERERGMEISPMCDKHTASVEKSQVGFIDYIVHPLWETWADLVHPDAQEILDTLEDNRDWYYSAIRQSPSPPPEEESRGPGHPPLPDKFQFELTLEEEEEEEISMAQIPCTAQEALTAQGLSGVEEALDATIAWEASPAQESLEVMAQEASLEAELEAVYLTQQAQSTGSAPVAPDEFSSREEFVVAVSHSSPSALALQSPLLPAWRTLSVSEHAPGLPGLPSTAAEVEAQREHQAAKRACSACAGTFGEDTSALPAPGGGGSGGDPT

SMILES | effect on stride length, in words (MPTP-treated mice; L-dopa 1 mg/kg alone, 20 minutes after administration) | Fold Selectivity for PDE7A versus PDE9A (PDE9A) [fold] | Fold Selectivity for PDE7A versus PDE3A (PDE3A) [fold] | Fold Selectivity for PDE7A versus PDE2A (PDE2A) | Fold Selectivity for PDE7A versus PDE4A (PDE4A) [fold] | Fold Selectivity for PDE7A versus PDE5A (PDE5A) [fold] | Fold Selectivity for PDE7A versus PDE10A (PDE10A) [fold] | effect on stride length, in words (MPTP-treated mice; OM955 0.1 mg/kg alone, 20 minutes after administration) | effect on stride length, in words (MPTP-treated mice; OM955 0.5 mg/kg, 20 minutes (and one hour) after injection)
N[C@@H](Cc1ccc(O)c(O)c1)C(=O)O [L-dopa, levodopa, reference compound] | do not increase stride length when administered alone; also recorded: does not increase stride length in MPTP mice to a significant level |  |  |  |  |  |  |  | 
COc1cc(N)ccc1-c1cc2c(c(=O)[nH]1)C(C1CCCCC1)N=[N+]2C (stereo not drawn) [OM69] |  | >7700 | 8170 | 11,100 fold | 6500 | 4630 | 1050 |  | 
O=C1Nc2c(Cl)ccc(OCCO)c2C2(CCCCC2)N1 [OM955] |  | >192 | >192 | 209 fold | 113 | 355 | 379 | do not increase stride length when administered alone; also recorded: does not increase stride length in MPTP mice to a significant level | statistically significant improvement in the stride length; also recorded: fully restored to that of unlesioned animals; also recorded: full recovery of baseline stride length
